Results published in US6355633B1, “Aryl sulfonic acids and derivatives as FSH antagonists” (American Home Products Corporation, priority 1999, dated 2002).

Target: T1, FSH receptor (Homo sapiens, UniProt P23945)
T1 sequence (P23945 18-695): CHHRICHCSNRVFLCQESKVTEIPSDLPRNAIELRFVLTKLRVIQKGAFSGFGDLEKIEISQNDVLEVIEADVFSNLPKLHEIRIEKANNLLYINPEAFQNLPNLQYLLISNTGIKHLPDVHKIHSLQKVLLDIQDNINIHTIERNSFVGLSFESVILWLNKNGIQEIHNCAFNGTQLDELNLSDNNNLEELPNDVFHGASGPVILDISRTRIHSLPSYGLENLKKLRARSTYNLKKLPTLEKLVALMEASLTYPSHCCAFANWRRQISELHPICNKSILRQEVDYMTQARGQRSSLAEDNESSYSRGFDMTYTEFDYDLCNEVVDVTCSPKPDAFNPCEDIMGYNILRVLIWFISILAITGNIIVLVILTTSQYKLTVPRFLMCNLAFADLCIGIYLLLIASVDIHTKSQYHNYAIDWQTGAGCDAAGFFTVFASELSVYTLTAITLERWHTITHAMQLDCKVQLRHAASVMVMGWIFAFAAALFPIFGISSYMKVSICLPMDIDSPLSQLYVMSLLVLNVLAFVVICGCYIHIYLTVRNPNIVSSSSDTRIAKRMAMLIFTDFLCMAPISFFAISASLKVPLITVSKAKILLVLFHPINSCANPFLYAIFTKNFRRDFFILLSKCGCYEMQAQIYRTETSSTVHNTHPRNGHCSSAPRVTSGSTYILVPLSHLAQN
Test: In Vitro Bio-test Procedure of Agonists and Antagonists to the FSH Receptor (cAMP accumulation in CHO-3D2 cells)
Format: cell-based
Parameters: expressed in transfected cells; host or cells: CHO-3D2 cells
Conditions: not given
Experimental: In Vitro Bio-test Procedure of Agonists and Antagonists to the FSH Receptor
The compounds were subsequently diluted in sterile procedure medium (Optimem (Gibco/BRL, Grand Island, N.Y.)/0.1% BSA) prior to use in the bio-procedure.
Preparation of CHO-3D2 Cells; CHO-3D2 cells were plated into 96-well Nunc tissue culture plates at a density of 30,000 cells/well in DMEM/F12 medium (Gibco/BRL, Grand Island, N.Y.) supplemented with 5% Fetal Bovine Serum (Hyclone, Fetal Clone II), 2 mM L-glutamine and penicillin/streptomycin (100 U/mL). Cells were plated one day prior to performing the bio-procedure.
Procedure: On the day of procedure, the wells were washed two times with 100 ul/well of pre-warmed (37 deg C.) procedure medium. After aspirating the second wash, an additional 100 ul of procedure medium was added to each well and the cells pre-incubated for 30-45 minutes at 37 deg C. In a humidified incubator with 5%CO2/95% air. The cells were then challenged with varying dilutions of the test substance(s) in a 50 ul total incubation volume in procedure medium for 30 minutes at 37 deg C. in the humidified incubator. The challenge was terminated by the addition of 50 ul of 0.2 N HCl to each well. CAMP accumulation in the medium was measured by radioimmunoassay.
Test Groups: In the 96-well format, the plate is organized into 12 columns each containing 8 rows of wells. The plate was split in half to test a single compound in both agonist and antagonist mode on the same plate.
For agonist mode, compounds were tested using 5 different concentrations in a dose-response paradigm using one column as a control (challenge medium alone) in agonist mode.
The 96-well format allowed for the capability to test 4 columns of compound, using one of the remaining columns for negative control (challenge medium alone) and the other remaining column for ampositive control (ED20 of FSH alone).
The doses chosen to test each compound were extrapolated from the initial screening process (receptor binding data). Along with the test compounds, FSH was run in agonist mode using doses ranging from 0.1 ng/mL-1000 ng/mL as a postive control. Cytotoxicity of the compounds were screened by treating cells with the highest concentration of each compound used in the cAMP procedure for 30 minutes followed by washing of the cells 2 times with 100 ul PBS. The cells were then incubated for 5 min at 37 deg C. in the presence of 50 ug/mL Fluorescein diacetate and 20 ug/mL Propidium iodide in 100 ul PBS. The cells were washed two times with 100 ul PBS followed by examination of the cells under a fluorescence microscope using a 490 nm filter. Viable cells stained green throughout, while dead cells had red fluorescent nuclei.
Analysis of Results: cAMP accumulation was expressed as fmol/mL. […] Data were analyzed statistically by analysis of variance and significant differences between treatments and control determined by Dunnett's test. In antagonist mode, a Duncan's test was used.
Reference Compounds: Test compounds were compared to the effect of purified or recombinant human FSH.

Row | IC50 | Compound
1 | 8.1 µM | COc1ccc(C(=O)Nc2ccc(/C=C/c3ccc(NC(=O)c4ccc(OC)c(S(=O)(=O)N5CCCCC5)c4)cc3S(=O)(=O)O)c(S(=O)(=O)O)c2)cc1S(=O)(=O)N1CCCCC1 [Example 30h, 2,2′-[(E)-1,2-Ethenediyl]bis[5-[[4-methoxy-3-(1-piperidinylsulfonyl)benzoyl]amino]benzenesulfonic Acid]]

Target: T1, FSH receptor
Test: FSH Receptor Radioligand Membrane Binding Standard Pharmacological Test Procedure
Parameters: expressed in transfected cells
Conditions: [125I]FSH binding to membranes of CHO cells stably transfected with the human FSH receptor
Experimental: FSH Receptor Radioligand Membrane Binding Standard Pharmacological Test Procedure
Membrane Source: Chinese hamster ovarian cells stably transfected with the human FSH receptor were cultured (Ultra CHO medium containing 1% fetal bovine serum and 200 μg/mL G418) in and harvested. Cells were collected by centrifugation and resulting cell pellets were frozen and stored at −70° C.
Membrane Receptor Preparation: Frozen cell pellets were weighed and resuspended in binding buffer to a final concentration of 30 mg wet weight/mL. Cell suspension for each pellet was homogenized using a Tempest homogenizer (setting=1; 5 strokes; VirTis, Gardiner, N.Y.). Cell homogenates were pooled and 35 mL aliquots were transferred to 50-mL polypropylene copolymer centrifuge tubes (Nalgene cat. #3110-0500). Tubes were spun at 12,000 rpm (SS34 rotor) for 12 min at 4° C. Resulting supernatant fractions were discarded and pellets were stored at −70° C. until use. On the day of the procedure, 35 mL binding buffer was added to each tube (35 mL membrane suspension was sufficient for three 96-well plates). The membrane pellet was dispersed by trituration using a pipet. The resulting suspension wass homogenized using a Tempest homogenizer (3 strokes at setting=1).
Receptor Binding Test procedure: Membrane homogenate (100 μl) was added to each well of a 96-well microtiter plate (Falcon # 3077). All reactions were tested in triplicate. Test compound solutions (50 μl) were added to the designated wells. Total bound counts were determined by adding 50 μl binding buffer containing 4% DMSO to the designated wells. […] Plates were pre-incubated for 15 min at room temperature on shaking platform (setting=3). After preincubation [^125I]FSH (50 μl) was added to each well and plates were incubated for 2 h at room temperature on shaking platform (setting=3). The reaction was terminated by transfer of the membrane preparation to glass fiber filters (Blue Mat #11740; 102×256 mm; Skatron Instruments, Sterling, Va.) that had been pretreated with 1% BSA in wash buffer for at least 30 min, but not longer than 1 h using a 96-well microtiter vacuum harvester (Skatron Instruments). The membrane preparation was washed with 5 cycles of ice-cold wash buffer (200 μl/well/cycle) followed by a pulse wash of 3 cycles (100 μl/well/cycle). The total wash volume per well was 1.3 mL. The filters were dried by a 10 sec aspiration. Disks corresponding to each well of the microtiter plate were punched out of the filter mat into 12×75 mm polypropylene tubes. The radioactivity present on each of the disks was measured using a gamma counter.
An FSH dose response curve (0.001, 0.01, 0.1, 1, 10, and 100 nM) was generated for each binding procedure to monitor procedure to procedrue variability.
FSH Receptor Radioligand Membrane Binding Procedure Buffers and Reagents
Binding buffer is prepared in 11 volumes containing Trizma-HCl, MgCl2, CaCl2 and sodium azide, the pH was adjusted to 7.2 with NaOH, and stored at 4° C. until use. BSA was weighed out on the day of the procedure and added to the amount of buffer required for the procedure (usually 150 mL). The protease inhibitors were prepared as 1 mg/mL stocks (aprotinin, leupeptin, and phosphoramidon were prepared in binding buffer without BSA and protease inhibitors; pepstatin and PMSF were prepared in methanol), stored in 1 mL aliquots at −70° C., and added to the binding buffer on the day of the procedure.
Wash buffer was prepared containing Trizma-HCl, MgCl2 and EDTA, the pH was adjusted to 7.2 with NaOH, and stored at 4° C.
Filter Soak Buffer (pH 7.2)
BSA was weighed out on the day of the procedure and added to 300 mL of wash buffer. The filter soak buffer was used for two procedures before being discarded.
A portion of the stock solution was diluted in binding buffer to a concentration of 200 pM.
FSH Solution for Determining Non-specific Binding: Purified human FSH was prepared as a 100 μM solution in binding buffer without protease inhibitors. […]

Row | Compound | IC50
2 | COc1ccc(C(=O)Nc2ccc(/C=C/c3ccc(NC(=O)c4ccc(OC)c(S(=O)(=O)N5CCCCC5)c4)cc3S(=O)(=O)O)c(S(=O)(=O)O)c2)cc1S(=O)(=O)N1CCCCC1 [Example 30h, 2,2′-[(E)-1,2-Ethenediyl]bis[5-[[4-methoxy-3-(1-piperidinylsulfonyl)benzoyl]amino]benzenesulfonic Acid]] | 7.3 µM
3 | COCCOc1ccc(C(=O)Nc2ccc(/C=C/c3ccc(NC(=O)c4ccc(S(C)(=O)=O)cc4)cc3S(=O)(=O)O)c(S(=O)(=O)O)c2)cc1 [Example 40a, 5-[[4-(2-Methoxyethoxy)benzoyl]amino]-2-[(E)-2-[4-[[4-(methanesulfonyl)benzoyl]amino]-2-sulfophenyl]ethenyl]benzenesulfonic Acid] | 6.2 µM
4 | COc1ccc(C(=O)Nc2ccc(CCc3ccc(NC(=O)c4ccc(OC)c(S(=O)(=O)N5CCS(=O)(=O)CC5)c4)cc3S(=O)(=O)O)c(S(=O)(=O)O)c2)cc1S(=O)(=O)N1CCS(=O)(=O)CC1 [Example 43c, 2,2′-(1,2-Ethanediyl)bis[5-[[3-[(1,1-dioxido-4-thiomorpholinyl)sulfonyl]-4-methoxybenzoyl]amino]benzenesulfonic Acid]] | 4.5 µM
5 | CS(=O)(=O)c1ccc(C(=O)Nc2ccc(CCc3ccc(NC(=O)c4ccc(S(C)(=O)=O)cc4)cc3S(=O)(=O)O)c(S(=O)(=O)O)c2)cc1 [Example 43e] | 4.3 µM
6 | COc1ccc(C(=O)Nc2ccc(CSCc3ccc(NC(=O)c4ccc(OC)c(S(=O)(=O)N5CCOCC5)c4)cc3S(=O)(=O)O)c(S(=O)(=O)O)c2)cc1S(=O)(=O)N1CCOCC1 [Example 50a, 2,2′-[Thiobis(methylene)]bis[5-[[4-methoxy-3-(4-morpholinylsulfonyl)benzoyl]amino]benzenesulfonic Acid]] | 34 µM
7 | COc1ccc(C(=O)Nc2ccc(CS(=O)(=O)Cc3ccc(NC(=O)c4ccc(OC)c(S(=O)(=O)N5CCOCC5)c4)cc3S(=O)(=O)O)c(S(=O)(=O)O)c2)cc1S(=O)(=O)N1CCOCC1 [Example 50b, 2,2′-[Sulfonylbis(methylene)]bis[5-[[4-methoxy-3-(4-morpholinylsulfonyl)benzoyl]amino]benzenesulfonic acid]] | 41 µM
8 | CSc1ccc(C(=O)Nc2ccc(C=Cc3ccc(NC(=O)c4ccc(SC)c(S(=O)(=O)N5CCOCC5)c4)cc3S(=O)(=O)O)cc2)cc1S(=O)(=O)N1CCOCC1 [Example 59, 5-[4-Methylsulfanyl-3-(morpholine-4-sulfonyl)-benzoylamino]-2-(2-{[4-methylsulfanyl-3-(morpholine-4-sulfonyl)-benzoylamino]-phenyl}-vinyl)-benzenesulfonic Acid] | 16 µM

Other lines, results leading:

Row | IC50 | Compound
9 | 21 µM | O=C(O)CS(=O)(=O)c1cccc(C(=O)Nc2ccc(C=Cc3ccc(NC(=O)c4cccc(S(=O)(=O)CC(=O)O)c4)cc3S(=O)(=O)O)c(S(=O)(=O)O)c2)c1 [Example 36b, [3-(4-{2-[4-(3-Carboxymethanesulfonyl-benzoylamino)-2-sulfo-phenyl]-vinyl}-3-sulfo-phenylcarbamoyl)-benzenesulfonyl]-acetic Acid]
10 | 6.7 µM | O=C(CS(=O)(=O)c1cccc(C(=O)Nc2ccc(/C=C/c3ccc(NC(=O)c4cccc(S(=O)(=O)CC(=O)NCCO)c4)cc3S(=O)(=O)O)c(S(=O)(=O)O)c2)c1)NCCO [Example 37c, 5-[[3-[[2-[(2-Hydroxyethyl)amino]-2-oxoethyl]sulfonyl]benzoyl]amino]-2-[(E)-2-[4-[[3-[[2-[(2-hydroxyethyl)amino]-2-oxoethyl]sulfonyl]benzoyl]amino]-2-sulfo-phenyl]ethenyl]benzenesulfonic Acid]
11 | 4.3 µM | NC(=O)CS(=O)(=O)c1cccc(C(=O)Nc2ccc(/C=C/c3ccc(NC(=O)c4cccc(S(=O)(=O)CC(N)=O)c4)cc3S(=O)(=O)O)c(S(=O)(=O)O)c2)c1 [Example 37d, 5-[[3-[(2-Amino-2-oxoethyl)sulfonyl]benzoyl]amino]-2-[(E)-2-[4-[[3-[(2-amino-2-oxoethyl)sulfonyl]benzoyl]amino]-2-sulfophenyl]ethenyl]-benzenesulfonic Acid]
12 | 5.2 µM | CS(=O)(=O)Cc1ccc(C(=O)Nc2ccc(/C=C/c3ccc(NC(=O)c4ccc(S(C)(=O)=O)cc4)cc3S(=O)(=O)O)c(S(=O)(=O)O)c2)cc1 [Example 40b, 5-[[4-(Methylsulfonyl)benzoyl]amino]-2-[(E)-2-[4-[[4-[(methylsulfonyl)methyl]benzoyl]amino]-2-sulfophenyl]ethenyl]benzenesulfonic Acid]
